Data reported in ChEMBL document CHEMBL1141131, “A selective estrogen receptor modulator designed for the treatment of uterine leiomyoma with unique tissue specificity for uterus and ovaries in rats” (J Med Chem, 2005).

Experiments:
[1] = molecular target: T1, Estrogen receptor (Rattus norvegicus, UniProt P06211)
T1 sequence (P06211 whole entry): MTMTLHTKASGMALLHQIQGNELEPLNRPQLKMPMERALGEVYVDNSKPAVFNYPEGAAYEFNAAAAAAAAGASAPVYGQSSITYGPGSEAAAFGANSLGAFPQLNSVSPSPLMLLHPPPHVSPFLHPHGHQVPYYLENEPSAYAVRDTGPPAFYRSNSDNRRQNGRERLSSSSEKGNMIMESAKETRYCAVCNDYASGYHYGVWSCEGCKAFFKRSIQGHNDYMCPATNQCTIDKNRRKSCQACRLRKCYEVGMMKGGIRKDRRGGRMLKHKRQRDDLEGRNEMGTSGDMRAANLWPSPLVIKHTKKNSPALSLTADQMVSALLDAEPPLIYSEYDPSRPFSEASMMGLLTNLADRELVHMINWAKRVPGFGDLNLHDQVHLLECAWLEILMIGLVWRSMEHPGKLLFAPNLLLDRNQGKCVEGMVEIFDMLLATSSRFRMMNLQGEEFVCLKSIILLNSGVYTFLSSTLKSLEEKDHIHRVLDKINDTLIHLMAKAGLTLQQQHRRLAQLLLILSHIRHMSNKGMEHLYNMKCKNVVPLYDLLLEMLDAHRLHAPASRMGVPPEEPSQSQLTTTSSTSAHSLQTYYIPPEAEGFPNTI
Description: Binding affinity for rat estrogen receptor alpha

[2] = molecular target: Estrogen receptor beta (Rattus norvegicus, UniProt Q62986)
Description: Binding affinity for rat estrogen receptor beta

[3] = molecular target: T2, Estrogen receptor (Homo sapiens, UniProt Q92731+P03372); settings: mcf7
Description: Half maximal inhibitory concentration against estrogen-induced proliferation of MCF-7 breast cells by 10 pM E2

[4] = molecular target: T2, Estrogen receptor; settings: ishikawa
Description: Inhibitory concentration against estrogen-induced proliferation of Ishikawa uterine cells by 1 nM E2

Chain of Estrogen receptor beta (Q62986 whole entry): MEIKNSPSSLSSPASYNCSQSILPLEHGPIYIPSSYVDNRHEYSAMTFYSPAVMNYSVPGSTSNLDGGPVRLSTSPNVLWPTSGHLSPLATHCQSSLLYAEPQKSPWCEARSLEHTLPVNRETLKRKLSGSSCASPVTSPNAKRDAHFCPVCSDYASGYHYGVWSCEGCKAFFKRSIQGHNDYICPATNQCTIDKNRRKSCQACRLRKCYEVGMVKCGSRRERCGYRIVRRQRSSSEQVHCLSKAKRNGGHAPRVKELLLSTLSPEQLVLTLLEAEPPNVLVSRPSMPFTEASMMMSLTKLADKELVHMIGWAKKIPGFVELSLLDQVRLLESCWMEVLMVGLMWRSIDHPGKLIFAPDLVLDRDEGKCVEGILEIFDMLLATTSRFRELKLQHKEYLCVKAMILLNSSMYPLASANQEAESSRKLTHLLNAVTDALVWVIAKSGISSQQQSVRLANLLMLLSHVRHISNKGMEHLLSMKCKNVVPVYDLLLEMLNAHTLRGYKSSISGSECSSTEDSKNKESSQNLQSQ

Ki [1] [nM]	Ki [2] [nM]	IC50 [3] [nM]	IC50 [4] [nM]	SMILES
0.25	0.3	0.34	3.18	Cl.Oc1ccc2c(Oc3ccc(OCCN4CCCCC4)cc3)c(-c3ccc(F)cc3)ccc2c1
1.15	24.1	3.4	4.78	CS(=O)(=O)c1ccc(-c2ccc3cc(O)ccc3c2Cc2ccc(OCCN3CCCCC3)cc2)cc1.Cl

SMILES	Ki [1] [nM]	Ki [2] [nM]	IC50 [3] [nM]	IC50 [4] [nM]
Cl.Oc1ccc(-c2ccc3cc(O)ccc3c2Cc2ccc(OCCN3CCCCC3)cc2)cc1	0.2	0.7	0.2	1.14
